The results in this text go back to US8598131B2, “Method for treatment of lung infections by administration of aminoglycosides by aerolisation” (priority 2010, dated 2013).

A short description of data set [1]: Gamma scintigraphy lung deposition, two way crossover study. The following applies: standard treatment, 300 mg using 5 mL in a Pari nebulizer.
Protocol: To assess the lung deposition of Tobramycin according to the therapeutic method according to the present disclosure, a two way non-randomised crossover study to studying the pulmonary distribution and pharmacokinetics in healthy subjects following single dose administration of Tobramycin via the Tobrair® device and PARI LC® PLUS jet nebulizer was performed. The study was designed as an open-labelled study as it is not possible to mask the identity of the aerosol delivery system used.
18 healthy, voluntary males and healthy, voluntary, non-pregnant, non-lactating females where subjected to the following treatment regimes:
Approximately 63 mg Tobramycin (180 mg/mL×0.35 mL) delivered to the lungs via the novel Tobrair® device over 7 deep, slow inhalations.
Gamma scintigraphy may also provide an assessment of the regional distribution of deposited drug or formulation in the lungs, with central regions representing mainly large airways and peripheral regions representing mainly small airways and alveoli.
In order to use gamma scintigraphy to assess the bronchopulmonary distribution of Tobramycin, the drug solution was labelled with a gamma emitting radioisotope as a surrogate marker. More specifically, technetium-99m diethylene triamine pentacetic acid (^99mTc-DTPA) was used in this study to achieve 10-20 MBq per dose using the Tobrair® device and PARI LC® PLUS jet nebulizer.
Data set [2] is described as follows: Safety assessment in the clinical study (adverse events, local irritation). It is filed as in vivo. The following applies: 180 mg Tobramycin per ml, healthy subjects. As for the experimental part: According to one aspect of the present disclosure, a pharmaceutical solution comprising 180 mg Tobramycin per ml water is used. This corresponds to approximately 3 fold the concentration of the solution in the marketed product (TOBI®). Tobramycin at 60 mg/mL is known to be well tolerated in healthy volunteers even at higher total dose levels; however it is considered that this increase in concentration potentially increases the risk of local irritation, but is not considered to be the primary driver for systemic exposure or systemic side effects in this study since the total dose level is lower.
Safety was assessed as well by reviewing adverse events data and vital signs data including pulse oximetry and spirometry data.

With `NCC1OC(OC2C(N)CC(N)C(OC3OC(CO)C(O)C(N)C3O)C2O)C(N)CC1O` [Tobramycin, (2S,3R,4S,5S,6R)-4-amino-2-{[(1S,2S,3R,4S,6R)-4,6-diamino-3-{[2R,3R,5S,6R)-3-amino-6-(aminomethyl)-5-hydroxyoxan-2-yl]oxy}-2-(hydroxymethylcyclohexyl]oxy)-6-(hydroxymethyl)oxane-3,5-diol], the “dose reaching the lungs” value in data set [1] is reported as “approx. 10%”. For the same compound, the local irritation entry in data set [2] is “only a few incidents of local irritation”.
